Experimental data from patent US20020013264A1, “Neoglycan anticancer agents and uses thereof” (priority 1999, published 2002).

Experiments:
[1] = test system: multiple myeloma cell line; test: Viability of a multiple myeloma cell line treated with nPG, EDAC modified GAG chains or native GAG chains; assay type: cell-based; conditions: data not shown
Source text: Synthetic proteoglycans termed neoproteoglycans (nPG), were produced by EDAC conjugation of the GAG chains heparin or chondroitin sulfate and a protein scaffold. Treatment of a multiple myeloma cell line with either nPG preparation or controls produced by EDAC modification of GAG chains alone reduced cell viability (data not shown). […] Therefore, neoglycans (neoglycans) consisting of EDAC modified heparin (neoheparin) or chondroitin sulfate (neoCS, neoCS) were produced and evaluated for potential anticancer activities.

[2] = test system: ARP-1 multiple myeloma cell line; test: MTT cell viability assay, ARP-1 cells; assay type: cell-based, human; conditions: 500 μg/ml (FIG. 1 legend), 72 hours
Source text: ARK, ARP-1, and CAG cells are B lymphoid cell lines established at the Arkansas Cancer Research Center from bone marrow aspirates of multiple myeloma patients (Ridley, Xiao et al. 1993). U266 is a multiple myeloma cell line that was obtained from the American Type Culture Collection (ATCC, Manassas, Va.). ARH-77 cells (ATCC, Manassas, Va.) were established from the peripheral blood of a patient with plasma cell leukemia (Burk, Drewinko et al. 1978). Peripheral blood mononuclear cells (PBMCs) were collected from healthy donors by Ficol-Hypaque separation of whole blood and were mitogen activated for 3 days with 2.5 μg/ml PHA (Sigma, St Louis, Mo.) prior to neoglycan treatment. The cell lines and peripheral blood mononuclear cells were grown in RPMI 1640 supplemented with 10% fetal bovine serum, 2 mM L-glutamine, 1 00 U/ml penicillin and 100 μg/ml streptomycin sulfate. […]
Cells were plated in the appropriate media on 96-well plates in a 100 μl total volume. […] Cell viability was determined based mitochondrial conversion of 3[4,5-Dimethylthiazol-2-yl]-2,5-diphenyltetrazolium bromide (MTT, Sigma, St Louis, Mo.) to formazan. […] The plates were gently agitated until the color reaction was uniform and the OD540 was determined using a microplate reader. […]

[3] = test system: MDA-MB-231 breast cancer tumors; test: Treatment of established MDA-MB-231 tumors in nude mice; assay type: in vivo; conditions: single 1.6 mg dose injected into the tumor followed by electroporation
Experimental: BALB/c nu/nu mice were anesthetized by intraperitoneal administration of a mixture of ketamine (42.8 mg/ml), xylazine (8.6 mg/ml), and acepromazine (1.4 mg/ml) at a dose of 1.8-2.0 ml/kg. Human breast cancer tumors were established following subcutaneous injection of 2×10^6 MDA-MB-231 cells in PBS. Two tumors were established on each mouse. Tumors were injected with a single 1.6 mg dose of chondroitin sulfate or chondroitin sulfate neoglycan in a 50 μl total volume. Immediately following injection, a caliper electrode was positioned on t wo sides of the tumor with contact on the skin. An electrical pulse was applied to the tumor through the electrodes with a BTS EC830 power supply (Genetronics, Inc., San Diego, Calif.). The tumors were measured with calipers and tumor volumes calculated according to the equation: V=(L×W2)×0.5. The results reflect two separate experiments in which one tumor was treated with chondroitin sulfate and the second tumor on the same animal was treated with neoCS. Both experiments included 7 tumors per treatment group.
Therefore, chondroitin sulfate neoglycan was used for evaluation of in vivo neoglycan activity. […] Two tumors per animal developed and were measured just prior to treatment. […] The size of each tumor was determined 48 hours later and at several subsequent time points.

ARP-1 cells = test: Apoptosis by Annexin V-FITC staining and PI exclusion, ARP-1; assay type: cell-based, human; conditions: discussion summary of Annexin V and TUNEL results
Experimental: (§1) ARP-1 cells and MDA-MB-231 cells were treated with media only, 32 μg/ml GAG chains and 32 μg/ml neoglycans. The ARP-1 cells were harvested following a 48 hour incubation period and the MDA-MB-231 cells were harvested after a 96 hour incubation period. The induction of apoptosis was determined by staining with fluorescein isothiocyanated-labeled Annexin V (Annexin V-FITC, CALTAG Laboratories, Burlingame, Calif.) following the manufacturer's instructions. Just prior to analysis, 0.5 mg/ml propidium iodide (PI, Sigma, St Louis, Mo.) in PBS, pH. 7.4 was added. Flow cytometry was performed with a Beckman Dickenson (Mountain View, Calif.) FACScan using Cellquest 1.2 software. Annexin V-FITC positive, PI negative cells were considered apoptotic.
(§2) Annexin-V binds to phosphatidylserine which is on the inner cytoplasmic membrane of healthy cells and on the outer cytoplasmic membrane of apoptotic cells .

MDA-MB-231 cells = test: Apoptosis by Annexin V-FITC staining and PI exclusion, MDA-MB-231; assay type: cell-based, human; conditions: discussion summary of Annexin V and TUNEL results
Experimental: as §1, §2

Row | Substance | effect on multiple myeloma cell viability / growth [1] | effect of native GAG chains on cell proliferation [2] | effect on established MDA-MB-231 tumors / tumor burden [3] | induction of apoptosis in ARP-1 cell line (FIG. 2) (ARP-1 cells) | induction of apoptosis in MDA-MB-231 cell line (FIG. 2) (MDA-MB-231 cells)
1 | chondroitin sulfate | no growth reducing affect | no affect | does not reduce the tumor burden | do not induce apoptosis | do not induce apoptosis
2 | heparin | no growth reducing affect | slightly enhances cell proliferation | – | do not induce apoptosis | do not induce apoptosis
